# Source: ChEMBL document CHEMBL3045809, “Susceptibility of adult Trichogramma nubilale (Hymenoptera: Trichogrammatidae) to selected insecticides with different modes of action” (Crop Prot, 2012)
# Tested on: Trichogramma nubilale
Molecule,LC50,LC95
IVERMECTIN,2.36 mgAi/L,15.2 mgAi/L

# Tested on: Trichogramma nubilale
# Assay: Contact toxicity against Trichogramma nubilale assessed as mortality after 24 hr by modified slight dry film method
# Type: functional
Molecule,LC50,LC95
CCOP(=S)(OCC)O/N=C(\C#N)c1ccccc1 [PHOXIM],0.14 mgAi/L,1.35 mgAi/L
CCCCN(CCCC)SN(C)C(=O)Oc1cccc2c1OC(C)(C)C2 [CARBOSULFAN],0.95 mgAi/L,7.4 mgAi/L
CCOP(=S)(OCC)Oc1nc(Cl)c(Cl)cc1Cl [CHLORPYRIFOS],0.081 mgAi/L,0.45 mgAi/L
CC[S+]([O-])c1c(C#N)nn(-c2c(Cl)cc(C(F)(F)F)cc2Cl)c1N (stereo not given) [ETHIPROLE],4.67 mgAi/L,21.35 mgAi/L
C=C(C)CNc1c([S+]([O-])C(F)(F)F)c(C#N)nn1-c1c(Cl)cc(C(F)(F)F)cc1Cl (stereo not given) [BUTENE-FIPRONIL],0.0068 mgAi/L,0.0419 mgAi/L
CC1(C)C(C=C(Cl)Cl)C1C(=O)OC(C#N)c1cccc(Oc2ccccc2)c1 (stereo not drawn) [ALPHA-CYPERMETHRIN],19.48 mgAi/L,176.8 mgAi/L
CNC(=O)Oc1cc(C)cc(C(C)C)c1 [PROMECARB],0.32 mgAi/L,1.91 mgAi/L
CC1(C)[C@H](/C=C(\Cl)C(F)(F)F)[C@@H]1C(=O)O[C@@H](C#N)c1cccc(Oc2ccccc2)c1 (relative stereo) [REL-LAMBDA CYHALOTHRIN],13.69 mgAi/L,127.6 mgAi/L
CCN(Cc1ccc(Cl)nc1)/C(=C/[N+](=O)[O-])NC [NITENPYRAM],4.37 mgAi/L,31.37 mgAi/L
N#Cc1nn(-c2c(Cl)cc(C(F)(F)F)cc2Cl)c(N)c1[S+]([O-])C(F)(F)F (stereo not given) [FIPRONIL],0.29 mgAi/L,1.82 mgAi/L
CNC(=O)Oc1ccccc1C(C)C [ISOPROCARB],0.12 mgAi/L,0.95 mgAi/L
CN1COCN(Cc2cnc(Cl)s2)/C1=N\[N+](=O)[O-] [THIAMETHOXAM],1.86 mgAi/L,13.35 mgAi/L
CNC(=O)Oc1cccc(C)c1 [METOLCARB],0.53 mgAi/L,5.2 mgAi/L
N#C/N=C1\SCCN1Cc1ccc(Cl)nc1 [THIACLOPRID],56.73 mgAi/L,461.2 mgAi/L
CC1(C)C(/C=C(\Cl)C(F)(F)F)C1C(=O)OC(C#N)c1cccc(Oc2ccccc2)c1 (stereo not given) [CYHALOTHRIN],10.98 mgAi/L,93.25 mgAi/L
COP(=S)(OC)Oc1ccc([N+](=O)[O-])c(C)c1 [FENITROTHION],2.1 mgAi/L,34.74 mgAi/L
CC1(C)C(C(=O)OC(C#N)c2cccc(Oc3ccccc3)c2)C1(C)C (stereo not given) [FENPROPATHRIN],150.3 mgAi/L,1327.5 mgAi/L
C/C(=N\C#N)N(C)Cc1ccc(Cl)nc1 [ACETAMIPRID],19.24 mgAi/L,167.9 mgAi/L
CNC(=O)Oc1cccc2ccccc12 [CARBARIL],,5.71 mgAi/L
CC[C@H](C)[C@H]1O[C@]2(C=C[C@@H]1C)C[C@@H]1C[C@@H](C/C=C(\C)[C@@H](O[C@H]3C[C@H](OC)[C@@H](O[C@H]4C[C@H](OC)[C@@H](O)[C@H](C)O4)[C@H](C)O3)[C@@H](C)/C=C/C=C3\CO[C@@H]4[C@H](O)C(C)=C[C@@H](C(=O)O1)[C@]34O)O2.CO[C@H]1C[C@H](O[C@H]2[C@H](C)O[C@@H](O[C@@H]3/C(C)=C/C[C@@H]4C[C@@H](C[C@]5(C=C[C@H](C)[C@@H](C(C)C)O5)O4)OC(=O)[C@@H]4C=C(C)[C@@H](O)[C@H]5OC/C(=C\C=C\[C@@H]3C)[C@]54O)C[C@@H]2OC)O[C@@H](C)[C@@H]1O [ABAMECTIN],3.57 mgAi/L,25.42 mgAi/L
O=C(NC(=O)c1c(F)cccc1F)Nc1cc(Cl)c(Oc2ncc(C(F)(F)F)cc2Cl)c(Cl)c1 [CHLORFLUAZURON],7533 mgAi/L,111205 mgAi/L
CCc1ccc(C(=O)NN(C(=O)c2cc(C)cc(C)c2)C(C)(C)C)cc1 [TEBUFENOZIDE],3452 mgAi/L,21616 mgAi/L
CCOP(=S)(OCC)Oc1ncn(-c2ccccc2)n1 [TRIAZOPHOS],1.81 mgAi/L,21.65 mgAi/L
O=C(NC(=O)c1c(F)cccc1F)Nc1cc(Cl)c(OC(F)(F)C(F)F)c(Cl)c1 [HEXAFLUMURON],9672 mgAi/L,51197 mgAi/L
CCCSP(=O)(OCC)Oc1ccc(Br)cc1Cl (stereo not given) [PROFENOFOS],0.18 mgAi/L,1.73 mgAi/L
O=[N+]([O-])/N=C1\NCCN1Cc1cnc(Cl)s1 [IMIDACLOTHIZ],75.27 mgAi/L,636.5 mgAi/L
O=[N+]([O-])/N=C1\NCCN1Cc1ccc(Cl)nc1 [IMIDACLOPRID],311.9 mgAi/L,2675 mgAi/L
